# From ChEMBL document CHEMBL1138216, “Design and synthesis of novel derivatives of the muscarinic agonist tetra(ethylene glycol)(3-methoxy-1,2,5-thiadiazol-4-yl) [3-(1-methyl-1,2,5,6-tetrahydropyrid-3-yl)-1,2,5-thiadiazol-4-yl] ether (CDD-0304): effects of structural modifications on the binding and activity at muscarinic receptor …” (J Med Chem, 2006)
# What was measured:
# [1] = target: T1, Muscarinic acetylcholine receptor M1 (Homo sapiens, UniProt P11229); experiment: Inhibition of [3H](R)-QNB binding to human M1 receptor expressed in A9 L cells; format: cell-based, A9L
# T1 sequence (P11229 whole entry): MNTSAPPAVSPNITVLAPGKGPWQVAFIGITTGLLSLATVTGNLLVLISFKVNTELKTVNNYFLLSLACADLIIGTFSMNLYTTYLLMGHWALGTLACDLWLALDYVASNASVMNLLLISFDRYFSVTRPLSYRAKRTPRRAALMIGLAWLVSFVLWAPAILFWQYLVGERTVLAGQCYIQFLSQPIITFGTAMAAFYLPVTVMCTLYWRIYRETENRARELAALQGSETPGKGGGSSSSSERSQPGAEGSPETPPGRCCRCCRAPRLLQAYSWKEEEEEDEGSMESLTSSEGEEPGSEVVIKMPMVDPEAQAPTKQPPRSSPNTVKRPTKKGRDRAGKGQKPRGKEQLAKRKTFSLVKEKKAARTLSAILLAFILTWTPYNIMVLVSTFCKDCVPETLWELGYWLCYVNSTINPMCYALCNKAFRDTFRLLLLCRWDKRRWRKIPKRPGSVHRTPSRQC
# [2] = target: T2, Muscarinic acetylcholine receptor M1/M5 chimeric protein (Homo sapiens, UniProt P08912+P11229); experiment: Agonist activity at human M1/M5(o3) chimeric receptor expressed in A9 L cells assessed as stimulation of phosphoinositide hydrolysis; format: functional, cell-based, L929
# T2 sequence (P11229 whole entry): T1 sequence (P11229 whole entry)
# T2 sequence (P08912 whole entry): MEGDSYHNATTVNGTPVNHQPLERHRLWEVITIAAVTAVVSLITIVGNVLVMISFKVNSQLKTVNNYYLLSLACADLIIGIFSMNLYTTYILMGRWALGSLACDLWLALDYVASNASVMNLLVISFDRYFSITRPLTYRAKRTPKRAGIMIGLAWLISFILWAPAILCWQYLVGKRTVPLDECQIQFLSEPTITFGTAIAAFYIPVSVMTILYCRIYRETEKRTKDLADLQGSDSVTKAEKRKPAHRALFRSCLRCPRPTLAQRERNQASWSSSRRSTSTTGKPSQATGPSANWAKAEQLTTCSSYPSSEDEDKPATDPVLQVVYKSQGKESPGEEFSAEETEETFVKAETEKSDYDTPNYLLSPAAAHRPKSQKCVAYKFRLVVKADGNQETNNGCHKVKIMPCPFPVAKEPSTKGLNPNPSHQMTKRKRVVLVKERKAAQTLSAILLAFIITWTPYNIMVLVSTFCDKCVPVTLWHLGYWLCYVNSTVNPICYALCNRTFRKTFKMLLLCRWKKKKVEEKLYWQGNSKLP
# [3] = target: T2, Muscarinic acetylcholine receptor M1/M5 chimeric protein; experiment: Inhibition of [3H](R)-QNB binding to human M1/M5(o2) chimeric receptor expressed in A9 L cells; format: cell-based, A9L
smiles,measurement,setting,value
COc1nsnc1OCCOCCOCCOCCOc1nsnc1C1=CCCN(C)C1,Ki,[1],0.0501 µM
same,EC50,[2],0.1 µM
same,Ki,[3],0.2 µM
